Laboratory results: patent US9873704B2, “Heterocyclic compounds and their uses” (Amgen Inc., priority 2009, dated 2018)

Biological target: T1, PI3Kδ (Homo sapiens, UniProt O00329)
T1 construct: Full length p110 subunits of PI3k α, β and δ, N-terminally labeled with polyHis tag; polyHis (N); made in house; host or cells: Sf9 insect cells (baculovirus)
Assay: PI3Kδ Alphascreen assay
Format: biochemical
Settings: not given
Procedure: Full length p110 subunits of PI3k α, β and δ, N-terminally labeled with polyHis tag, were coexpressed with p85 with Baculo virus expression vectors in sf9 insect cells. P110/p85 heterodimers were purified by sequential Ni-NTA, Q-HP, Superdex-100 chromatography. Purified α, β and δ isozymes were stored at −20° C. in 20 mM Tris, pH 8, 0.2M NaCl, 50% glycerol, 5 mM DTT, 2 mM Na cholate. […] The γ isozyme was purified by sequential Ni-NTA, Superdex-200, Q-HP chromatography. The γ isozyme was stored frozen at −80° C. in NaH2PO4, pH 8, 0.2M NaCl, 1% ethylene glycol, 2 mM β-mercaptoethanol.
A PI3K Alphascreen® assay (PerkinElmer, Waltham, Mass.) was used to measure the activity of a panel of four phosphoinositide 3-kinases: PI3Kα, PI3Kβ, PI3Kγ, and PI3Kδ. Enzyme reaction buffer was prepared using sterile water (Baxter, Deerfield, Ill.) and 50 mM Tris HCl pH 7, 14 mM MgCl2, 2 mM sodium cholate, and 100 mM NaCl. 2 mM DTT was added fresh the day of the experiment. The Alphascreen buffer was made using sterile water and 10 mM Tris HCl pH 7.5, 150 mM NaCl, 0.10% Tween 20, and 30 mM EDTA. 1 mM DTT was added fresh the day of the experiment. Compound source plates used for this assay were 384-well Greiner clear polypropylene plates containing test compounds at 5 mM and diluted 1:2 over 22 concentrations. Columns 23 and 24 contained only DMSO as these wells comprised the positive and negative controls, respectively. Source plates were replicated by transferring 0.5 uL per well into 384-well Optiplates (PerkinElmer, Waltham, Mass.).
Each PI3K isoform was diluted in enzyme reaction buffer to 2× working stocks. […] PI(4,5)P2 (Echelon Biosciences, Salt Lake City, Utah) was diluted to 10 μM and ATP was diluted to 20 μM. This 2× stock was used in the assays for PI3Kα and PI3Kβ. For assay of PI3Kγ and PI3Kδ, PI(4,5)P2 was diluted to 10 μM and ATP was diluted to 8 μM to prepare a similar 2× working stock. Alphascreen reaction solutions were made using beads from the anti-GST Alphascreen kit (PerkinElmer, Waltham, Mass.). Two 4× working stocks of the Alphascreen reagents were made in Alphascreen reaction buffer. In one stock, biotinylated-IP4 (Echelon Biosciences, Salt Lake City, Utah) was diluted to 40 nM and streptavidin-donor beads were diluted to 80 μg/mL. In the second stock, PIP3-binding protein (Echelon Biosciences, Salt Lake City, Utah) was diluted to 40 nM and anti-GST-acceptor beads were diluted to 80 μg/mL.
10 μL/well of the appropriate substrate 2× stock (containing 20 μM ATP for the PI3Kα and β assays and containing 8 μM ATP for the PI3Kγ and δ assays) was then added to Columns 1-24 of all plates. Plates were then incubated at room temperature for 20 minutes. In the dark, 10 μL/well of the donor bead solution was added to columns 1-24 of the plates to quench the enzyme reaction. The plates were incubated at room temperature for 30 minutes. Still in the dark, 10 μL/well of the acceptor bead solution was added to columns 1-24 of the plates. The plates were then incubated in the dark for 1.5 hours. The plates were read on an Envision multimode Plate Reader (PerkinElmer, Waltham, Mass.) using a 680 nm excitation filter and a 520-620 nm emission filter.

T1 sequence (O00329 whole entry): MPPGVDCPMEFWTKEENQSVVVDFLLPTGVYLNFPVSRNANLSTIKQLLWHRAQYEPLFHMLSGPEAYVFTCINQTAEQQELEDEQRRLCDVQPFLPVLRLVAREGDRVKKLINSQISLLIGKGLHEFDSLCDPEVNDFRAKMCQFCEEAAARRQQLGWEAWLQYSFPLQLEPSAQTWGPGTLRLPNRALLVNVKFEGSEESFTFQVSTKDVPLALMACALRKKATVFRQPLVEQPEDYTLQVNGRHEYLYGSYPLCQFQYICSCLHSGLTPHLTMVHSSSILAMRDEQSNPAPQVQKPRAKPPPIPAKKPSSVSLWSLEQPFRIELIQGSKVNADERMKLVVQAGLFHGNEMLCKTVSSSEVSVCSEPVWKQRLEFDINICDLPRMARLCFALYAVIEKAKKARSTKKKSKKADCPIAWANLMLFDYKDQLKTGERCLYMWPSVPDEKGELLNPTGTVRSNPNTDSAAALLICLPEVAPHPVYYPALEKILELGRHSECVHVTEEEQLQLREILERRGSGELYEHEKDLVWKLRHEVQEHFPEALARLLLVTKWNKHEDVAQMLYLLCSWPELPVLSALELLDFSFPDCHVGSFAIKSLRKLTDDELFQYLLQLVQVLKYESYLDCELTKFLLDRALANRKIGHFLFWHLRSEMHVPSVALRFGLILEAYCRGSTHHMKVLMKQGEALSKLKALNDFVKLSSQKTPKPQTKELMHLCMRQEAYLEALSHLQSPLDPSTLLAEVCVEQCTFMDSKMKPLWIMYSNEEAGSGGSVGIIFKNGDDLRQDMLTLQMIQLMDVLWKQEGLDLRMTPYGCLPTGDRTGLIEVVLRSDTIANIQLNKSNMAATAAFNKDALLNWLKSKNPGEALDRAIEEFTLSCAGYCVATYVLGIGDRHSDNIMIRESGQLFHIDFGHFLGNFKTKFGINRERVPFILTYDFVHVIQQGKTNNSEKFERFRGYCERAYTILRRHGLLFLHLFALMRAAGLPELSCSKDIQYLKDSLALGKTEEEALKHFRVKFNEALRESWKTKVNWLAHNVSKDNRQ
T1 sequence (P27986 whole entry partner): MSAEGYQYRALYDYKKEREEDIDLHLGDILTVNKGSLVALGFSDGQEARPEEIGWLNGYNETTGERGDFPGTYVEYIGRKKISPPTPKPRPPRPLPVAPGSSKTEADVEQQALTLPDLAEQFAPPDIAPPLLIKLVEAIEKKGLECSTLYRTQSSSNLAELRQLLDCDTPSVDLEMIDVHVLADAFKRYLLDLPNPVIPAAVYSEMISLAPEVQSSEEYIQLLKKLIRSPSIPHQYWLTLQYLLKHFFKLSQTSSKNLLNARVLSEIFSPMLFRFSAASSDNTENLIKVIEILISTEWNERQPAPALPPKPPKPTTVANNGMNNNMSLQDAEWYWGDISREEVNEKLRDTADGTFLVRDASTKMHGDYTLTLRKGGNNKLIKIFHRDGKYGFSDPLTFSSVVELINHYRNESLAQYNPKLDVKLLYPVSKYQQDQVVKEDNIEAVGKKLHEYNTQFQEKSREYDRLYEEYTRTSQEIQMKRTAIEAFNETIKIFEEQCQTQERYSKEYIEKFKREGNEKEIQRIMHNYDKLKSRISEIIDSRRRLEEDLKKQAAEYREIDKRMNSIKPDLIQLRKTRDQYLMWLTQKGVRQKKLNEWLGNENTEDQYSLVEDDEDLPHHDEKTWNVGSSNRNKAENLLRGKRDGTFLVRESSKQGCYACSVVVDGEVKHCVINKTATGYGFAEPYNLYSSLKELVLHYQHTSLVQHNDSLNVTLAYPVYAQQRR

| Compound | Ki [nM] |
| --- | --- |
| CSc1c(-c2ccccc2)c(C(C)Nc2ncnc(N)c2C#N)nc2ccc(F)cc12 (stereo not shown) [4-amino-6-((1-(6-fluoro-4-(methylsulfanyl)-3-phenyl-2-quinolinyl)ethyl)amino)-5-pyrimidinecarbonitrile] | 2.4 |
| CC(Nc1ncnc(N)c1C#N)c1nc2ccc(F)cc2c(C(=O)N2CC[C@@H](O)C2)c1-c1ccccc1 (stereo partly drawn) [4-Amino-6-((1-(6-fluoro-4-(((3R)-3-hydroxy-1-pyrrolidinyl)carbonyl)-3-phenyl-2-quinolinyl)ethyl)amino)-5-pyrimidinecarbonitrile] | 25.6 |
| C[C@H](Nc1ncnc(N)c1C#N)c1nc2ccc(F)cc2c(NCCS(C)(=O)=O)c1-c1ccccc1 [4-Amino-6-(((1S)-1-(6-fluoro-4-((2-(methylsulfonyl)ethyl)amino)-3-phenyl-2-quinolinyl)ethyl)amino)-5-pyrimidinecarbonitrile] | 0.226 |
| C[C@@H](Nc1ncnc(N)c1C#N)c1nc2cccc(C#N)c2cc1-c1ccccn1 [2-((1R)-1-((6-amino-5-cyano-4-pyrimidinyl)amino)ethyl)-3-(2-pyridinyl)-5-quinolinecarbonitrile] | 2640 |
| CC(Nc1ncnc(N)c1C#N)c1nc2ncccc2cc1-c1ccccn1 (racemic) [4-Amino-6-(((1S, 1R)-1-(3-(2-pyridinyl)-1,8-naphthyridin-2-yl)ethyl)amino)-5-pyrimidinecarbonitrile] | 225 |
| N#Cc1c(N)ncnc1NCc1nc2c(F)cccc2cc1-c1ccccc1 [4-Amino-6-((8-fluoro-3-phenylquinolin-2-yl)methylamino)pyrimidine-5-carbonitrile] | 12.3 |
| N#Cc1c(N)ncnc1NCc1nc2cccc(F)c2cc1-c1ccccc1 [4-Amino-6-((5-fluoro-3-phenylquinolin-2-yl)methylamino)pyrimidine-5-carbonitrile] | 107 |
| CC(Nc1cc(N)ncn1)c1nc2ccc(F)cc2cc1-c1ccccn1 (stereo not shown) [N4-(1-(6-Fluoro-3-(pyridin-2-yl)quinolin-2-yl)ethyl)pyrimidine-4,6-diamine] | 3730 |
| COc1c(-c2ccccc2)c([C@H](C)Nc2ncnc(N)c2C#N)nc2ccc(F)cc12 [(S)-4-amino-6-(1-(6-fluoro-4-methoxy-3-phenylquinolin-2-yl)ethylamino)pyrimidine-5-carbonitrile] | 1.18 |
| C[C@@H](Nc1ncnc(N)c1C#N)c1nc2cccc(F)c2c(S(C)(=O)=O)c1-c1ccccc1 [4-amino-6-(((1R)-1-(5-fluoro-4-(methylsulfonyl)-3-phenyl-2-quinolinyl)ethyl)amino)-5-pyrimidinecarbonitrile] | 466 |
| CC(Nc1ncnc(N)c1C#N)c1nc2ccc(F)cc2c(N2CC(O)C2)c1-c1ccccn1 (stereo not shown) [4-Amino-6-(1-(6-fluoro-4-(3-hydroxyazetidin-1-yl)-3-(pyridin-2-yl)quinolin-2-yl)ethylamino)pyrimidine-5-carbonitrile] | 1.78 |
| C[C@@H](Nc1ncnc2[nH]cnc12)c1nc2ccc(F)cc2cc1-c1ccccn1 [(R)—N-(1-(6-fluoro-3-(pyridin-2-yl)quinolin-2-yl)ethyl)-9H-purin-6-amine] | 217 |
| CC(Nc1ncnc(N)c1C#N)c1nc2ccc(F)cc2c(N(C)C)c1-c1ccccn1 (stereo not shown) [4-amino-6-(1-(4-(dimethylamino)-6-fluoro-3-(pyridin-2-yl)quinolin-2-yl)ethylamino)pyrimidine-5-carbonitrile] | 1.4 |
| N#Cc1c(N)ncnc1NCc1nc2cccc(F)c2cc1-c1cc(F)cc(F)c1 [4-Amino-6-((3-(3,5-difluorophenyl)-5-fluoroquinolin-2-yl)methylamino)pyrimidine-5-carbonitrile] | 246 |
| CC(Nc1ncnc(N)c1C#N)c1nc2ccc(F)cc2c(C(=O)O)c1-c1ccccn1 (stereo not shown) [2-1-((6-Amino-5-cyano-4-pyrimidinyl)amino)ethyl)-6-fluoro-3-(2-pyridinyl)-4-quinolinecarboxylic acid] | 119 |
| CC(Nc1ncnc(N)c1C#N)c1nc2ccc(F)cc2c(NCCO)c1-c1ccccc1 (stereo not shown) [4-Amino-6-((1-(6-fluoro-4-((2-hydroxyethyl)amino)-3-phenyl-2-quinolinyl)ethyl)amino)-5-pyrimidinecarbonitrile] | 0.396 |

The remaining compounds from weak to strong by Ki, led by results:

| Ki [nM] | Compound |
| --- | --- |
| 11600 | CC(Nc1ccncn1)c1nc2ccc(F)cc2cc1-c1ccccn1 (stereo not shown) [N-(1-(6-Fluoro-3-(pyridin-2-yl)quinolin-2-yl)ethyl)pyrimidin-4-amine] |
| 137 | N#Cc1c(N)ncnc1NCc1nc2cccc(F)c2cc1-c1ccccn1 [4-Amino-6-((5-fluoro-3-(pyridin-2-yl)quinolin-2-yl)methylamino)pyrimidine-5-carbonitrile] |
| 59.1 | C[C@@H](Nc1ncnc(N)c1C#N)c1nc2ccc(F)cc2c(C#N)c1-c1ccccc1 [2-((1R)-1-((6-Amino-5-cyano-4-pyrimidinyl)amino)ethyl)-6-fluoro-3-phenyl-4-quinolinecarbonitrile] |
| 39 | CS(=O)(=O)c1ccccc1-c1cc2c(F)cccc2nc1CNc1ncnc(N)c1C#N [4-Amino-6-((5-fluoro-3-(2-(methylsulfonyl)phenyl)quinolin-2-yl)methylamino)pyrimidine-5-carbonitrile] |
| 30.7 | CS(=O)(=O)c1ccccc1-c1cc2cccc(F)c2nc1CNc1ncnc(N)c1C#N [4-Amino-6-((8-fluoro-3-(2-(methylsulfonyl)phenyl)quinolin-2-yl)methylamino)-pyrimidine-5-carbonitrile] |
| 21.3 | CC(Nc1ncnc2[nH]cnc12)c1nc2ccc(F)cc2cc1-c1ccccn1 (racemic) [N-(1-(6-Fluoro-3-(pyridin-2-yl)quinolin-2-yl)ethyl)-9H-purin-6-amine] |
| 14.1 | C[C@H](Nc1ncnc(N)c1C#N)c1nc2cccc(C#N)c2cc1-c1ccccn1 [2-((1S)-1-((6-Amino-5-cyano-4-pyrimidinyl)amino)ethyl)-3-(2-pyridinyl)-5-quinolinecarbonitrile] |
| 7.67 | C[C@@H](c1nc2ccc(F)cc2cc1-c1ccccn1)n1nc(C#N)c2c(N)ncnc21 [(S)-4-amino-1-(1-(6-fluoro-3-(pyridin-2-yl)quinolin-2-yl)ethyl)-1H-pyrazolo[3,4-d]pyrimidine-3-carbonitrile] |
| 7.06 | CC(Nc1ncnc(N)c1C#N)c1nc2ccc(F)cc2c(C(=O)N2CCCC2)c1-c1ccccc1 (stereo not shown) [4-Amino-6-((1-(6-fluoro-3-phenyl-4-(1-pyrrolidinylcarbonyl)-2-quinolinyl)-ethyl)amino)-5-pyrimidinecarbonitrile] |
| 1.75 | COC1CN(C(=O)c2c(-c3ccccc3)c(C(C)Nc3ncnc(N)c3C#N)nc3ccc(F)cc23)C1 (stereo not shown) [4-Amino-6-((1-(6-fluoro-4-((3-methoxy-1-azetidinyl)carbonyl)-3-phenyl-2-quinolinyl)ethyl)amino)-5-pyrimidinecarbonitrile] |
| 1.68 | CC(Nc1ncnc(N)c1C#N)c1nc2ccc(F)cc2c(CO)c1-c1ccccc1 (stereo not shown) [4-amino-6-(1-(6-fluoro-4-(hydroxymethyl)-3-phenylquinolin-2-yl)ethylamino)pyrimidine-5-carbonitrile] |
| 1.56 | COC(=O)c1c(-c2ccccc2)c(C(C)Nc2ncnc(N)c2C#N)nc2ccc(F)cc12 (stereo not shown) [Methyl 2-(1-(6-amino-5-cyanopyrimidin-4-ylamino)ethyl)-6-fluoro-3-phenylquinoline-4-carboxylate] |
| 1.02 | CC(Nc1ncnc(N)c1C#N)c1nc2ccc(F)cc2c(C(=O)N2CC[C@H](O)C2)c1-c1ccccc1 (stereo partly drawn) [4-Amino-6-((-1-(6-fluoro-4-(((3S)-3-hydroxy-1-pyrrolidinyl)carbonyl)-3-phenyl-2-quinolinyl)ethyl)amino)-5-pyrimidinecarbonitrile] |
| 0.657 | C[C@H](Nc1ncnc(N)c1C#N)c1nc2ccc(F)cc2c(C(=O)N2CC[C@H](O)C2)c1-c1ccccc1 [4-amino-6-(((1S)-1-(6-fluoro-4-(((3S)-3-hydroxy-1-pyrrolidinyl)carbonyl)-3-phenyl-2-quinolinyl)ethyl)amino)-5-pyrimidinecarbonitrile] |

Same assay, conditions: listed as 4-amino-6-(-1-(6-fluoro-4-(((3R)-3-hydroxy-1-pyrrolidinyl)-carbonyl)-3-phenyl-2))

| Ki [nM] | Compound |
| --- | --- |
| 5.07 | CC(Nc1ncnc(N)c1C#N)c1nc2ccc(F)cc2c(C(=O)N2CC[C@@H](O)C2)c1-c1ccccc1 (stereo partly drawn) [4-Amino-6-((1-(6-fluoro-4-(((3R)-3-hydroxy-1-pyrrolidinyl)carbonyl)-3-phenyl-2-quinolinyl)ethyl)amino)-5-pyrimidinecarbonitrile] |
